Test results taken from patent publication EP4321023A1, “MOSQUITO REPELLENT COMPOSITION COMPRISING YARROW ESSENTIAL OIL” (National Hellenic Research Foundation, priority 2022, dated 2024).

Key:
[1] = tested on: Epiderm™ tissues; experiment: EpiDerm skin irritation test (EPI-200-SIT), MTT tissue viability; format: cell-based, human
Description: The EpiDerm™ skin irritation test kit (Schafer-Korting, Bock et al., 2008) (EPI-200-SIT) was purchased by MatTek (https://www.mattek.com/) and used in this study. The value of this method lies in that it provides in vivo prediction for classification testing of the nano-emulsions as irritant or non-irritant, based on in vitro results. According to the EU and GHS classification (R38/ Category 2 or no label), an irritant is predicted if the mean relative tissue viability of individual tissues exposed to the test substance is reduced below 50% of the mean viability of the negative controls run in parallel.
The experimental procedure for the skin irritation test is the following. Fresh tissues are transferred onto 6-well plates and pre-incubated under standard culture conditions for 1 hour in the assay medium (DMEM based medium, MatTek). Then, the assay medium is replaced by fresh assay medium, and tissues are incubated overnight. […] Then, the blue formazan salt formed by cellular mitochondria is extracted with 2.0 ml/tissue of isopropanol (extractant solution, part # MTT-100-EXT) and the optical density of the extracted formazan is determined at 570 nm using a spectrophotometer. Relative tissue viability is calculated for each tissue as % of the mean viability of the negative control tissues. […]

[2] = tested on: 3D human skin tissues; experiment: Histological analysis (eosin and hematoxylin) after 48 h topical application; format: cell-based; settings: dose 200 µg EO/cm^2, 48 hours; Figure 8
Experimental: Following topical application of nano-emulsion 1 of Example 2 (Yarrow essential oil (2% Achillea millefolium essential oil)) or of nano-emulsion 2 of Example 2 (mixture of 1% Yarrow essential oil (Achillea millefolium essential oil) with 1% Lavandin oil (Hybrid Lavandula intermedia essential oil) [1:1 w/w]) on 3D human skin tissues, for 48 hours, skin specimens are collected and further processed for: [1] histological analysis (Furio, Pampalakis et al., 2015) and [2] molecular analysis.
First, 3D-reconstructed human skin tissue culture media is replaced with fresh, pre-warmed media. Under sterile conditions, tissues are exposed topically to each test nano-emulsion (dose, 200 µg EO/cm^2). 5% SDS a widely known skin irritant was used as positive control. […] Alternatively, total RNA was extracted from 3D human skin tissues (Macherey-Nagel) to quantify relative expression of tight junction proteins with the aim to test for potential alterations in expression levels (Figure 9 ). Then, synthesized cDNAs (SuperScript™ First-Strand Synthesis System for RT-PCR, Invitrogen) were used as template for RT-qPCR (SYBR™ Select, Applied Biosystems) to quantify the relative expression levels of tight junction proteins encoding genes using the gene-specific primers enlisted in Table 8. […]

[3] = tested on: EpiOcular™ tissues; format: cell-based; settings: human, 30 min, 200 µg EO/cm^2
Experimental: The EpiOcular™ eye irritation test (Stern, Klausner et al., 1998) (OCL-200-EIT) purchased by MatTek was used in this study to evaluate the eye irritation potential of nano-emulsion 1 of Example 2 (Yarrow essential oil (2% Achillea millefolium essential oil)) or of nano-emulsion 2 of Example 2 (mixture of 1% Yarrow essential oil (Achillea millefolium essential oil) with 1% Lavandin oil (Hybrid Lavandula intermedia essential oil) [1:1 w/w]).
Fresh tissues are equilibrated at RT for 15 min, then, transferred onto 6-well plates and pre-incubated at standard culture conditions for 1 hour in assay medium, which is DMEM based medium (MatTek), then, replaced, and tissues are incubated overnight under standard culture conditions. The tissues are prehydrated with Ca^++Mg^++Free-DPBS and incubated at standard culture conditions for 30±2 min. Each nano-emulsion (dose: 200 µg EO/cm^2) and control samples are applied topically on the EpiOcular™ tissues. The tissues are incubated for 30±2 min followed by removal of the nano-emulsions by extensive rinsing of the tissues with Ca^++Mg^++Free-DPBS. […] Finally, the MTT assay is performed, and the relative tissue viability is calculated for each tissue as % of the mean viability of the negative control tissues. […]

COC(C)=O [PC, methyl acetate]
Classification ([1]; skin irritation, prediction model developed by MatTek): I, qualified (I, irritant)
Mean of viabilities, % ([1]; skin, dose 200 µg EO/cm^2, 60±1 min exposure, % of mean viability of negative control, 2 tissues): 2.828%
skin morphology by eosin and hematoxylin staining [2]: high degree of damage
Mean of viabilities, % [3]: 13.46%
